Assay results as given in EP1561465A2, “Methods of use of fluoroquinolone compounds against bacteria” (LG Life Sciences, Ltd., priority 1999, dated 2001).
Values after ≈ are worked out from the molar mass of the structure shown.

Legend:
Type in all cases: cell-based
Escherichia coli = assay: MIC by NCCLS broth microdilution, 1100 Japanese clinical isolates 1997-1998; conditions: for MIC50 / MIC90: Escherichia coli
Klebsiella oxytoca = assay: as above; conditions: Klebsiella oxytoca (n=40)
Staphylococcus aureus = assay: microbe, parasite or virus in culture
[1] = MIC by agar dilution, Brucella HK agar, 491 anaerobic clinical isolates; conditions: clinical isolates of Bacteroides spp., Prevotella bivia and other Prevotella spp.
Moraxella catarrhalis = assay: MIC by two-fold serial agar dilution, Sensitivity Disk agar-N (Kitasato isolates); conditions: Moraxella catarrhalis (22)
[2] = tested on: Staphylococcus epidermidis; assay: MIC by NCCLS broth microdilution, 1100 Japanese clinical isolates 1997-1998; conditions: for MIC50 / MIC90: Staphylococcus epidermidis
Enterococcus faecium = assay: as above; conditions: for MIC: Enterococcus faecium
P. aeruginosa = assay: MIC by two-fold serial agar dilution, quinolone-resistant strains; conditions: Pseudomonas aeruginosa
Proteus vulgaris = assay: MIC by NCCLS broth microdilution, 1100 Japanese clinical isolates 1997-1998; conditions: Proteus vulgaris (n=25)
Salmonella spp. = assay: as above; conditions: Salmonella spp. (n=29)
Morganella morganii = assay: as above
Streptococcus pyogenes = assay: as above; conditions: Streptococcus pyogenes (n=51)
Klebsiella pneumoniae = assay: MIC by NCCLS reference broth microdilution, 450 respiratory tract pathogens; conditions: for MIC50 / MIC90: Klebsiella pneumoniae
Shigella spp. = assay: MIC by NCCLS broth microdilution, 1100 Japanese clinical isolates 1997-1998; conditions: Shigella spp. (n=34)
Citrobacter freundii = assay: as above; conditions: Citrobacter freundii (n=39)
[3] = Escherichia coli ciprofloxacin resistant (n=5)
[4] = Escherichia coli ciprofloxacin susceptible (n=37)
[5] = Staphylococcus epidermidis oxacillin resistant (n=43)
[6] = Staphylococcus epidermidis oxacillin susceptible (n=35)
[7] = extended spectrum β-lactamase negative (n = 30)
[8] = extended spectrum β-lactamase positive (n = 20)

C[C@@H]1CN(c2c(F)c(N)c3c(=O)c(C(=O)O)cn(C4CC4)c3c2F)C[C@H](C)N1 [Sparfloxacin, sparfloxacin]
MIC Range (Escherichia coli; [3]): 8 to 128 µg/mL | MIC Range (Escherichia coli; [4]): ≤0.008 to 0.25 µg/mL | MIC50 (Escherichia coli; [3]): 32 µg/mL (≈ 81.5 µM) | MIC90 (Escherichia coli; Escherichia coli ciprofloxacin resistant (n=5), values marked *: MIC80 value): 128 µg/mL (≈ 326 µM) | MIC50 (Escherichia coli; [4]): 0.016 µg/mL (≈ 0.0408 µM) | MIC90 (Escherichia coli; [4]): 0.032 µg/mL (≈ 0.0815 µM) | MIC50 (Klebsiella oxytoca): 0.063 µg/mL (≈ 0.161 µM) | MIC90 (Klebsiella oxytoca): 8 µg/mL (≈ 20.4 µM) | MIC Range (Klebsiella oxytoca): 0.016 to 32 µg/mL | MIC Range (Staphylococcus aureus; Methicillin-resistant (38)): 0.063 to 64 µg/mL | MIC Range (Staphylococcus aureus; Methicillin-susceptible (9)): 0.063 to 0.5 µg/mL | MIC50 (Staphylococcus aureus; Staphylococcus aureus, Methicillin-resistant (38)): 2 µg/mL (≈ 5.1 µM) | MIC90 (Staphylococcus aureus; Staphylococcus aureus, Methicillin-resistant (38), read-out: MIC90): 64 µg/mL (≈ 163 µM) | MIC50 (Staphylococcus aureus; Staphylococcus aureus, Methicillin-susceptible (9)): 0.125 µg/mL (≈ 0.319 µM) | MIC (Staphylococcus aureus; Staphylococcus aureus, S. aureus KU2240, mutant type Wild (wild strain)): 0.25 µg/mL (≈ 0.637 µM) | MIC (Staphylococcus aureus; Staphylococcus aureus, S. aureus KU2241, mutant type NorA (efflux-mediated quinolone resistant)): 0.25 µg/mL (≈ 0.637 µM) | MIC (Staphylococcus aureus; Staphylococcus aureus, S. aureus KU2242, mutant type T (DNA topoisomerase IV)): 0.25 µg/mL (≈ 0.637 µM) | MIC (Staphylococcus aureus; Staphylococcus aureus, S. aureus KU2243, mutant type G+T (DNA gyrase and topoisomerase IV)): 64 µg/mL (≈ 163 µM) | MIC (Staphylococcus aureus; Staphylococcus aureus, S. aureus KU2244, mutant type G (DNA gyrase)): 0.25 µg/mL (≈ 0.637 µM) | MIC (Staphylococcus aureus; Staphylococcus aureus, S. aureus KU2245, mutant type G+T (DNA gyrase and topoisomerase IV)): 64 µg/mL (≈ 163 µM) | MIC (Staphylococcus aureus; Staphylococcus aureus, S. aureus KU2246, mutant type T (DNA topoisomerase IV)): 0.25 µg/mL (≈ 0.637 µM) | MIC90 [1]: 4 to 32 µg/mL (≈ 10.2 to 81.5 µM) | MIC50 (Moraxella catarrhalis): 0.016 µg/mL (≈ 0.0408 µM) | MIC90 (Moraxella catarrhalis): 0.031 µg/mL (≈ 0.079 µM) | MIC Range (Moraxella catarrhalis): 0.016 to 0.031 µg/mL | MIC Range [2, 5]: 0.032 to 16 µg/mL | MIC Range [2, 6]: 0.032 to 8 µg/mL | MIC50 [2, 5]: 4 µg/mL (≈ 10.2 µM) | MIC90 [2, 5]: 8 µg/mL (≈ 20.4 µM) | MIC50 [2, 6]: 0.063 µg/mL (≈ 0.161 µM) | MIC90 [2, 6]: 4 µg/mL (≈ 10.2 µM) | MIC50 (Enterococcus faecium; Enterococcus faecium (n=39)): 32 µg/mL (≈ 81.5 µM) | MIC90 (Enterococcus faecium; Enterococcus faecium (n=39)): 64 µg/mL (≈ 163 µM) | MIC Range (Enterococcus faecium; Enterococcus faecium (n=39)): 0.5 to 128 µg/mL | MIC (Enterococcus faecium; Enterococcus faecium (vanA) vancomycin resistant, strain TMS1): 32 µg/mL (≈ 81.5 µM) | MIC (Enterococcus faecium; Enterococcus faecium (vanA) vancomycin resistant, strain TMS2): 0.5 µg/mL (≈ 1.27 µM) | MIC (Enterococcus faecium; Enterococcus faecium (vanA) vancomycin resistant, strain TMS3): 64 µg/mL (≈ 163 µM) | MIC (Enterococcus faecium; Enterococcus faecium (vanA) vancomycin resistant, strain TMS4): 64 µg/mL (≈ 163 µM) | MIC (Enterococcus faecium; Enterococcus faecium (vanA) vancomycin resistant, strain TMS5): 2 µg/mL (≈ 5.1 µM) | MIC (Enterococcus faecium; Enterococcus laecium (van B) vancomycin resistant, strain TMS6): 64 µg/mL (≈ 163 µM) | MIC (Enterococcus faecium; Enterococcus laecium (van B) vancomycin resistant, strain TMS7): 32 µg/mL (≈ 81.5 µM) | MIC (P. aeruginosa): 2 µg/mL (≈ 5.1 µM) | MIC Range (Proteus vulgaris): 0.063 to 2 µg/mL | MIC50 (Proteus vulgaris; read-out: MIC50): 0.25 µg/mL (≈ 0.637 µM) | MIC90 (Proteus vulgaris; read-out: MIC90): 1 µg/mL (≈ 2.55 µM) | MIC50 (Salmonella spp.): 0.032 µg/mL (≈ 0.0815 µM) | MIC90 (Salmonella spp.): 0.063 µg/mL (≈ 0.161 µM) | MIC Range (Salmonella spp.): 0.016 to 0.063 µg/mL | MIC50 (Morganella morganii; Morganella morganii): 0.125 µg/mL (≈ 0.319 µM) | MIC Range (Morganella morganii; Morganella morganii (n=40)): 0.063 to 16 µg/mL | MIC90 (Morganella morganii; Morganella morganii (n=40), read-out: MIC90): 0.5 µg/mL (≈ 1.27 µM) | MIC90 (Streptococcus pyogenes): 1 µg/mL (≈ 2.55 µM) | MIC Range (Streptococcus pyogenes): 0.25 to 1 µg/mL | MIC50 (Streptococcus pyogenes; read-out: MIC50): 0.5 µg/mL (≈ 1.27 µM) | MIC Range (Klebsiella pneumoniae; Klebsiella pneumoniae (n = 50)): ≤0.0075 to 1 µg/mL | MIC50 (Klebsiella pneumoniae; Klebsiella pneumoniae (n = 50)): 0.06 µg/mL (≈ 0.153 µM) | MIC90 (Klebsiella pneumoniae; Klebsiella pneumoniae (n = 50)): 0.5 µg/mL (≈ 1.27 µM) | MIC50 (Klebsiella pneumoniae; [7]): 0.03 µg/mL (≈ 0.0765 µM) | MIC90 (Klebsiella pneumoniae; [7]): 0.12 µg/mL (≈ 0.306 µM) | MIC50 (Klebsiella pneumoniae; [8]): 0.5 µg/mL (≈ 1.27 µM) | MIC90 (Klebsiella pneumoniae; [8]): 0.5 µg/mL (≈ 1.27 µM) | MIC Range (Klebsiella pneumoniae; [7]): ≤0.0075 to 0.25 µg/mL | MIC Range (Klebsiella pneumoniae; [8]): 0.03 to 0.5 µg/mL | MIC50 (Shigella spp.): ≤ 0.008 µg/mL | MIC90 (Shigella spp.): 0.032 µg/mL (≈ 0.0815 µM) | MIC Range (Shigella spp.): ≤0.008 to 0.032 µg/mL | MIC90 (Citrobacter freundii): 2 µg/mL (≈ 5.1 µM) | MIC Range (Citrobacter freundii): 0.016 to 4 µg/mL | MIC50 (Citrobacter freundii; read-out: MIC50): 0.25 µg/mL (≈ 0.637 µM)
